Measurements taken from publication PMC8587465, “Naturally Available Flavonoid Aglycones as Potential Antiviral Drug Candidates against SARS-CoV-2” (Molecules, 2021).
≈ marks a conversion by molar mass, not a printed value. Like-named read-outs stand apart in the source and are kept apart here.

Key:
[1] = tested on: SARS-CoV-2 "NRC-03-nhCoV" virus; assay: In vitro anti-SARS-CoV-2 activity, IC50 by reduction of virus-induced cytopathic effect in Vero-E6 cells; assay type: cell-based; conditions: read-out: inhibitory concentration 50% (IC50) against NRC-03-nhCoV
[2] = Cytotoxicity (CC50) determination, crystal violet assay; assay type: cell-based; conditions: African green monkey
Experimental: To assess the half-maximal cytotoxic concentration (CC50), stock solutions of the compounds were prepared in 10% DMSO in ddH2O and diluted further to the working solutions with DMEM. The cytotoxic activity of the extracts was tested in VERO-E6 cells by using a crystal violet assay, as previously described with minor modifications. Briefly, the cells were seeded in 96 well-plates (100 µL/well at a density of 3 × 10^5 cells/mL) and incubated for 24 h at 37 °C in 5% CO2. Control cells were treated with 1% DMSO in DMEM (the concentration of DMSO in the highest concentration of the tested samples). After 24 h, the cells were treated with various concentrations of the compounds in triplicates. After 72 h, the supernatant was discarded, and the cell monolayers were fixed with 10% formaldehyde for 1 h at room temperature (RT). The fixed monolayers were, then, dried and stained with 50 µL of 0.1% crystal violet for 20 min on a bench rocker at RT. The monolayers were, then, washed and dried, and the crystal violet dye in each well was dissolved with 200 µL methanol for 20 min on a bench rocker at RT. […]
All experiments were performed in three biological repeats. […] The IC50 and CC50 curves represent the nonlinear fit of “normalize” of “transform” of the obtained data; their values were calculated using GraphPad prism as “best fit value”.

[3] = tested on: SARS-CoV-2 Mpro; conditions: stated in the abstract for the reference standard; method and reference not given; cited from earlier work
[4] = Severe acute respiratory syndrome coronavirus 2, Vero C1008, 72 h

COc1ccc(-c2cc(=O)c3c(O)c(OC)c(O)cc3o2)cc1 [Compound 2, Pectolinarigenin]
IC50 [1, 4]: 12.4 mg/L (≈ 39.5 µM)

COc1ccc(-c2cc(=O)c3c(OC)c(OC)c(OC)c(OC)c3o2)cc1 [Compound 3, Tangeretin]
IC50 [1, 4]: 2.5 mg/L (≈ 6.71 µM)

COc1ccc(-c2cc(=O)c3c(O)c(OC)c(OC)c(OC)c3o2)cc1 [Compound 4, Gardenin B]
CC50 at 72 h [2]: 14100 mg/L (≈ 39400 µM)
IC50 ([1]; Severe acute respiratory syndrome coronavirus 2, Vero C1008, Vero-E6 cells, 100 TCID50, 72 h, CPE reduction): 128 mg/L (≈ 357 µM)

COc1c(O)cc2oc(-c3ccc(O)cc3)cc(=O)c2c1O [Compound 5, Hispidulin]
CC50 at 72 h ([2]; Vero E6 cells, 72 h, crystal violet, read-out: half-maximal cytotoxic concentration (CC50)): 14100 mg/L (≈ 47100 µM)
IC50 [1, 4]: 883 mg/L (≈ 2940 µM)

CC(C)(C)OC(=O)Nc1cccn(C(CC2CC2)C(=O)NC(CC2CCNC2=O)C(=O)C(=O)NCc2ccccc2)c1=O (stereo not shown) [KI]
IC50 [3]: 66.72 mg/L (≈ 112 µM)
